Source: PMC11206987, “Investigation of the Efficacy of Benzylidene-3-methyl-2-thioxothiazolidin-4-one Analogs with Antioxidant Activities on the Inhibition of Mushroom and Mammal Tyrosinases” (Molecules, 2024)

Tests used:
B16F10 cells = experiment: Cell cytotoxicity test (EZ-Cytox); type: cell-based, murine; details: 2.5–20 µM, 48 and 72 h
Experimental: Because analogs 1–3 and 5 exerted potent mushroom tyrosinase inhibitory activities, their effects on anti-melanogenic and cellular tyrosinase activities were evaluated in B16F10 murine cells. Prior to examining their cellular activity, their cell viabilities were investigated. Cell viability was evaluated at 48 and 72 h after treatment with five different concentrations of analogs.
The effect on B16F10 cytotoxicity was assessed following a previously described method. Cells (1 × 10^4 cells/well of a 96-well plate) were cultivated for 24 h with 5% CO2 at 37 °C. The cells were exposed to the BMTTZD analogs (test concentrations: 20, 10, 5, 2.5, and 0 µM) and cultivated with 5% CO2 at 37 °C for 72 h. An EZ-Cytox solution (10 µL; EZ-500, DoGenBio, Seoul, Republic of Korea) was exposed to each well, and the plate was cultivated for 2 h. Cell viability was calculated from the well absorbance measured at 450 nm utilizing a reader (VersaMax®).

[1] = target: T1, B16F10 cellular tyrosinase (Mus musculus, UniProt P11344); experiment: In situ cellular tyrosinase activity assay using L-dopa staining; type: cell-based, murine; details: 72 h
T1 construct: host or cells: B16F10 cells
T1 sequence (P11344 19-533): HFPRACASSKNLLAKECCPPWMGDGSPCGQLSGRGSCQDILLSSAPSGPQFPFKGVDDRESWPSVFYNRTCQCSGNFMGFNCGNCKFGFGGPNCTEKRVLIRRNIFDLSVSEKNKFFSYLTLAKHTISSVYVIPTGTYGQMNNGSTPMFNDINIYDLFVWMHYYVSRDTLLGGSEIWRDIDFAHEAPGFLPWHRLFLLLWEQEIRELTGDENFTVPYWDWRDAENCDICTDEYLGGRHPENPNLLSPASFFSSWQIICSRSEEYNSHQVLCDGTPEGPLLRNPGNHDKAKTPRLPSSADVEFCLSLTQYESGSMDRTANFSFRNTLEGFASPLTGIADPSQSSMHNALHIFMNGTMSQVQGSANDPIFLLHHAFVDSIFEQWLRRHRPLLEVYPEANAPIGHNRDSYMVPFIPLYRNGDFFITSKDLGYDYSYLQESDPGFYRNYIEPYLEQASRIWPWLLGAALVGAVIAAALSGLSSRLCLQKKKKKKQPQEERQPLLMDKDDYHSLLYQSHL
Experimental: Because tyrosinase plays a critical role in melanogenesis, in situ intracellular tyrosinase activity was measured. The in situ intracellular tyrosinase activity was evaluated in B16F10 cells following a previously reported procedure. Stimulators (α-MSH plus IBMX) were exposed to cells to raise tyrosinase activity levels, and analogs 1, 3, and 5 were treated at 20, 10, and 5 µM for 72 h. After fixation and permeabilization using paraformaldehyde and Triton X-100, the cells were stained with L-dopa.
A 24-well plate containing 1 × 10^3 B16F10 cells/well was cultivated for 24 h under conditions identical to those of the cell culture. […] The cells were then cultivated under conditions identical to those of the cell culture for 72 h. Cultivated cells were fixed for 40 min with paraformaldehyde (4%), washed 2 times with PBS, and permeabilized with Triton X-100 (0.1%) for 2 min. After washing 2 times with PBS, the cells in the 24-well plate were stained with a 2 mM L-dopa aqueous solution (500 µL/well) for 2 h at 37 °C. Staining was photographed and analyzed utilizing a camera connected to a microscope (Motic, Hong Kong).

[2] = ABTS+ radical scavenging activity assay; details: 100 µM
Experimental: Second, the ability of BMTTZD analogs to scavenge ABTS^+ radicals was examined. ABTS^+ radicals were obtained via the oxidation of ABTS using potassium persulfate. All samples (Trolox (positive control) and 1–8) were tested at 100 µM.
The ability of the BMTTZD analogs to scavenge ABTS^+ radicals was assessed as previously described, with minor modifications. To a 50 mL tube were added 20 mL aqueous K2S2O8 solution (2.45 mM) and 20 mL aqueous ABTS solution (7 mM). The combined mixture was placed at 22 °C in a place without light for 17 h to generate the ABTS^+ radicals. For adequate absorbance control (0.70 ± 0.02 at 734 nm), methanol was added to the combined mixture. Test compounds (Trolox and analogs 1–8; 10 µL in 10% DMSO/90% EtOH [v/v] solution) were mixed with 90 µL ABTS^+ radical solution. After storage in a place without light for 2 min, the well absorbance at 734 nm was acquired for 10 min every 1 min by using a microplate reader (VersaMax®). All test compounds were tested at 100 µM. The activity of the analogs was compared to that of Trolox.

## CN1C(=O)/C(=C/c2ccc(O)cc2O)SC1=S [Analog 3, (Z)-5-(2,4-Dihydroxybenzylidene)-3-methyl-2-thioxothiazolidin-4-one]
B16F10 cells
  cytotoxicity (cell viability): did not exhibit cytotoxicity at ≤20 µM
[1]; 20 µM
  in situ intracellular tyrosinase inhibition compared with kojic acid: tyrosinase inhibition stronger than did kojic acid
[1]; analogs 5, 10, 20 µM, kojic acid 20 µM
  effect on stimulator-raised in situ intracellular tyrosinase activity (L-dopa staining): concentration-dependently reduced the stimulator-enhanced intracellular tyrosinase inhibition
[2]
  ABTS^+ radical scavenging activity: 95%
